{
  "source": "patent US6368788B1",
  "about": "(priority 1987, dated 2002)",
  "key": {"influenza": {"tested_on": "influenza", "assay": "Influenza treatments (Protocol E)", "design": "species or system human", "settings": "in vivo", "experimental": "One hundred fifty-six patients (156) with influenza were treated with 100 μg L-Glu-L-Trp im or 1 μg/kg intranasally on each of 5-10 consecutive days. A control group constituted with entry of 82 influenza patients who remained untreated."}, "Chronic prostatitis": {"assay": "Chronic prostatitis", "assay_type": "in vivo, human", "excerpt": "Thirty four patients (aged 22 to 45 years) with chronic prostatitis were entered into Group 1 of this trial during the acute phase of their disease. Diagnosis was based on medical history, and physical examination of the prostate (palpated through the rectum). Laboratory testing included microscopic examination of prostate gland secretions, spermography and urinalysis. All patients had previously received full courses of unsuccessful therapy with antibacterial agents, and additional individualized therapy including uroantiseptics, spasmolytic, ganglion blockers, novocain paraprostate and presacral blocks, ultrasound, and prostate gland massage. Success of any individualized therapy was only partial and short-term. […]\nPeripheral blood samples were collected for laboratory testing 10 days after the last injection of L-Glu-L-Trp. […]"}, "lymphocytes": {"tested_on": "lymphocytes", "assay": "In vitro incubation of pyoderma patients' lymphocytes with 0.01% L-Glu-L-Trp", "assay_type": "cell-based, human", "settings": "100 μg/mL in vitro"}, "[1]": {"settings": "After L-Glu-L-Trp, pre-treatment value Decreased (n = 14)"}, "[2]": {"settings": "Group 1, After L-Glu-L-Trp, 10 days after the last injection"}},
  "data": [
    {"substance": "L-Glu-L-Trp", "values": [
      {"measurement": "Clinical outcome", "setting": "influenza", "value": "accelerated alleviation of symptoms associated with influenza infection"},
      {"measurement": "IgG", "setting": "Chronic prostatitis; After L-Glu-L-Trp, pre-treatment value Decreased (n = 2)", "value": "7.8 ± 1.1", "unit": "g/L"},
      {"measurement": "Phagocytes (% of PBL)", "setting": "Chronic prostatitis; After L-Glu-L-Trp, pre-treatment value Decreased (n = 5)", "value": "36.6 ± 8.5 % of PBL"},
      {"measurement": "Imm. Cmplx.", "setting": "Chronic prostatitis; After L-Glu-L-Trp, pre-treatment value Decreased (n = 8)", "value": "0.07 ± 0.01", "unit": "units"},
      {"measurement": "B-Lymphocytes", "setting": "Chronic prostatitis; After L-Glu-L-Trp, pre-treatment value Decreased (n = 10)", "value": "26.0 ± 2.9"},
      {"measurement": "Complement (CH50)", "setting": "Chronic prostatitis; [1]", "value": "34.2 ± 0.9"},
      {"measurement": "T-Lymphocytes (%)", "setting": "Chronic prostatitis; [1]", "value": "37.9 ± 2.2", "unit": "%"},
      {"measurement": "IgM", "setting": "Chronic prostatitis; After L-Glu-L-Trp, pre-treatment value Increased (n = 1)", "value": 3.44, "unit": "g/L"},
      {"measurement": "T-Lymphocytes (%)", "setting": "Chronic prostatitis; After L-Glu-L-Trp, pre-treatment value Increased (n = 2)", "value": "40.0 ± 15.5", "unit": "%"},
      {"measurement": "IgG", "setting": "Chronic prostatitis; After L-Glu-L-Trp, pre-treatment value Increased (n = 6)", "value": "14.7 ± 1.4", "unit": "g/L"},
      {"measurement": "Complement (CH50)", "setting": "Chronic prostatitis; After L-Glu-L-Trp, pre-treatment value Increased (n = 7)", "value": "30.7 ± 0.9"},
      {"measurement": "B-Lymphocytes", "setting": "Chronic prostatitis; After L-Glu-L-Trp, pre-treatment value Increased (n = 8)", "value": "24.8 ± 2.9"},
      {"measurement": "Imm. Cmplx.", "setting": "Chronic prostatitis; After L-Glu-L-Trp, pre-treatment value Increased (n = 19)", "value": "0.08 ± 0.01", "unit": "units"},
      {"measurement": "Phagocytes (% of PBL)", "setting": "Chronic prostatitis; After L-Glu-L-Trp, pre-treatment value Increased (n = 26)", "value": "37.7 ± 3.9 % of PBL"},
      {"measurement": "Phagocytes (% of PBL)", "setting": "Chronic prostatitis; After L-Glu-L-Trp, pre-treatment value Normal (n = 3)", "value": "58.6 ± 18 % of PBL"},
      {"measurement": "Imm. Cmplx.", "setting": "Chronic prostatitis; After L-Glu-L-Trp, pre-treatment value Normal (n = 7)", "value": "0.08 ± 0.01", "unit": "units"},
      {"measurement": "Complement (CH50)", "setting": "Chronic prostatitis; After L-Glu-L-Trp, pre-treatment value Normal (n = 13)", "value": "29.3 ± 0.9"},
      {"measurement": "B-Lymphocytes", "setting": "Chronic prostatitis; After L-Glu-L-Trp, pre-treatment value Normal (n = 16)", "value": "29.2 ± 2.2"},
      {"measurement": "T-Lymphocytes (%)", "setting": "Chronic prostatitis; After L-Glu-L-Trp, pre-treatment value Normal (n = 18)", "value": "50.0 ± 3.6", "unit": "%"},
      {"measurement": "IgG", "setting": "Chronic prostatitis; After L-Glu-L-Trp, pre-treatment value Normal (n = 26)", "value": "12.5 ± 0.7", "unit": "g/L"},
      {"measurement": "IgM", "setting": "Chronic prostatitis; After L-Glu-L-Trp, pre-treatment value Normal (n = 33)", "value": "2.08 ± 0.12", "unit": "g/L"},
      {"measurement": "IgA", "setting": "Chronic prostatitis; After L-Glu-L-Trp, pre-treatment value Normal (n = 34)", "value": "2.2 ± 0.12", "unit": "g/L"},
      {"measurement": "“Unsatisfactory” results", "setting": "Chronic prostatitis; Group 1", "value": "No “unsatisfactory” results were recorded"},
      {"measurement": "B-Lymphocytes: % of PBL", "setting": "Chronic prostatitis; [2]", "value": "27.2 ± 1.4 % of PBL"},
      {"measurement": "B-Lymphocytes: No.", "setting": "Chronic prostatitis; [2]", "value": "0.54 ± 0.1 10^9/L"},
      {"measurement": "Complement (CH50)", "setting": "Chronic prostatitis; [2]", "value": "29.4 ± 0.5"},
      {"measurement": "IgA", "setting": "Chronic prostatitis; [2]", "value": "2.2 ± 0.1", "unit": "g/L"},
      {"measurement": "IgG", "setting": "Chronic prostatitis; [2]", "value": "12.5 ± 0.6", "unit": "g/L"},
      {"measurement": "IgM", "setting": "Chronic prostatitis; [2]", "value": "2.1 ± 0.1", "unit": "g/L"},
      {"measurement": "Immune Complexes", "setting": "Chronic prostatitis; [2]", "value": "0.80 ± 0.004", "unit": "units"},
      {"measurement": "Phagocytes: % PBL", "setting": "Chronic prostatitis; [2]", "value": "39.4 ± 3.5", "unit": "% PBL"},
      {"measurement": "T-Lymphocytes: % of Lym", "setting": "Chronic prostatitis; [2]", "value": "44.4 ± 2.3 % of Lym"},
      {"measurement": "T-Lymphocytes: No.", "setting": "Chronic prostatitis; [2]", "value": "0.88 ± 0.1 10^9/L"},
      {"measurement": "E-RFC", "setting": "lymphocytes", "value": "73.3±2.26", "unit": "%"},
      {"measurement": "OKT4+ lymphocytes", "setting": "lymphocytes", "value": "18.2±1.6", "unit": "%"},
      {"measurement": "OKT8+ lymphocytes", "setting": "lymphocytes", "value": "17.9±1.4", "unit": "%"}
    ]}
  ]
}
